Laboratory results from patent US20070258941A1, “Methods and compositions for remediation of disc herniation by modifying structure” (priority 2006, published 2007).
Several values for one entry are separate records, joined by “and”; a condition that tells them apart may be missing. Identical values can stand only once.

Legend:
[1] = test system: bovine cartilage explants; test: Distribution kinetics / permeation of FITC-labeled polylysine into cartilage explants (fluorescence of cryostat sections); type: in vitro ADME; conditions: for time for permeation to achieve maximal levels (completed): FITC-labeled polymer, cartilage explants submerged in solution
Procedure: FIG. 2 is a set of photographs of bovine cartilage explants that were incubated with FITC-labeled polylysine (15-30 kDa in size, panels F, G, H, I, and J; and 30-70 kDa in size, panels K, L, M, N, and O) or control untreated cartilage (FIG. 2 panels A, B, C, D, and E). Photographs were taken at each of time points 0.5 hour (FIG. 2, panels A, F, and K), 1.0 hour (FIG. 2, panels B, G, and L), 3 hours (FIG. 2, panels C, H, and M), 7 hours (FIG. 2, panels D, I, and N) and 12 hours (FIG. 2, panels E, J, and O).
After a predetermined time, tissue was washed, frozen, and 10 micron sections were produced using a cryostat.

[2] = test system: rabbit lumbar intervertebral discs; test: Effect of polylysine on disc height (disc height index, DHI) after injection into rabbit lumbar discs; type: in vivo; conditions: for L2/3 DHI, Average / L2/3 DHI: injected disc L2/3; for L2/3 DHI, Average / L4/5 DHI, Average: average of six animals; for L2/3 DHI, Average / L2/3 DHI / L4/5 DHI, Average / L4/5 DHI: untreated L3/4 disc = 100; for L2/3 DHI / L4/5 DHI: individual animals 1-6; for L4/5 DHI, Average / L4/5 DHI: injected disc L4/5
Procedure: FIG. 1 is a set of bar graphs showing intervertebral disc heights in rabbits injected with 30-70 kDa polylysine at each of lumbar 2/3 and 4/5, compared with heights of control untreated lumbar discs 3/4 (100%). Disc heights were measured at each of two weeks (FIG. 1, Panel A), four weeks (FIG. 1, Panel B), and six weeks (FIG. 1, Panel C). A decrease in the DHI of approximately 20% was maintained for 6 weeks in this study.
Statistical Analyses: Statistical analyses were performed by one way ANOVA with Fisher's PLSD test as a post hoc test.
Rabbit discs (six animals) were injected with 30-70 kDa polylysine into discs L4/5 and L2/3. As controls, the L3/4 discs were untreated in each of the animals.
Disc height was measured at each of 2, 4 and 6 weeks after injection, and the normalized percentages of starting disc heights observed are shown in FIG. 1. Disc height was reduced by the treatment to about 80% of the initial values, and the decrease of 20% was maintained for the full 6-week observation period.

Substance	time for permeation to achieve maximal levels (completed) [1]	L2/3 DHI, Average ([2]; 2 weeks after injection)	L2/3 DHI ([2]; 2 weeks after injection)	L4/5 DHI, Average ([2]; 2 weeks after injection)	L4/5 DHI ([2]; 2 weeks after injection)	L2/3 DHI, Average ([2]; 4 weeks after injection)	L2/3 DHI ([2]; 4 weeks after injection)	L4/5 DHI, Average ([2]; 4 weeks after injection)	L4/5 DHI ([2]; 4 weeks after injection)	L2/3 DHI, Average ([2]; 6 weeks after injection)	L2/3 DHI ([2]; 6 weeks after injection)	L4/5 DHI, Average ([2]; 6 weeks after injection)	L4/5 DHI ([2]; 6 weeks after injection)	disc height after treatment, of the initial values ([2]; rabbit discs L2/3 and L4/5, 2, 4 and 6 weeks after injection)	rapidity of permeation of cartilage ([1]; compared to the longer chain length (30-70 kDa))
polylysine [longer polymer]	7 to 12 h														
polylysine [30-70 kDa polylysine]		79.48%	77.13% and 68.43% and 70.29% and 91.98% and 80.01% and 89.04%	78.67%	90.03% and 77.07% and 77.69% and 72.34% and 81.34% and 73.56%	74.86%	79.11% and 93.42% and 80.98% and 66.08% and 63.83% and 65.74%	79.65%	79.68% and 93.65% and 66.64% and 79.43% and 73.86% and 84.63%	79.51%	78.77% and 93.30% and 96.63% and 65.59% and 73.66% and 69.09%	81.57%	87.13% and 96.43% and 81.53% and 83.27% and 61.60% and 79.46%	about 80%	
polylysine [shorter cationic polymer]	3 to 7 h														enhanced
